From patent US20240299361A1, “VETERINARY TRANSDERMAL GEL COMPRISING ONDANSETRON, AND RELATED METHODS” (Verté Therapeutics, LLC, priority 2023, published 2024)
Counter-ions that a name gives are not always drawn.

Experiment: Visual solubility screen for Ondansetron HCl in solvents/excipients
Type: physicochemical
Experimental: The purpose of this study was to evaluate the solubility of Ondansetron HCl in an array of solvents/excipients to develop a stable topical formulation for transdermal application in cats and dogs. In this screen, evaluation of solubility was determined by visual examination only.
The following procedure was used to determine solubility of the API (Ondansetron HCl): • a. Label 20 mL USP Type I scintillation vials appropriately for each solvent/solvent blend that will be tested. Although API is light sensitive, clear glass vials will be used, as the study is a visual assessment only. • b. Place a stir bar in each vial. Weigh the empty vial containing stir bar and cap with inert liner. Record the tare weight. • c. Weigh approximately 3.0 g of each solvent into the designated vial. • d. Weigh approximately 30.0 mg of the API into each vial. • e. Place all closed vials on a stir plate and allow mixing for at least 30 minutes at ambient conditions. • f. Visually inspect to see if the API has completely dissolved. Record the stir time and observations. • g. If the API has dissolved, repeat steps d to f until saturation solubility is achieved or up to 10% w/w. • h. Record additional API aliquots added to the mixture. Continue stirring solutions overnight at ambient temperature to confirm solubility is maintained. • i. Record the final weight of the vial, cap, stir bar, and sample to calculate the total amount of active and/or solvent added at room temperature. • j. Heat (if applicable) all the vials in which API is not soluble to 65° C. for 1 hour and check the solubility. Allow them to cool to room temperature and check for any precipitation in the vials in which API was soluble when heated. Perform microscopy as deemed necessary. • k. Confirm the pH of buffer solutions after addition and solubilization (if applicable) of the API. • l. Record final observations and take pictures as needed to document the observations.
Upon addition of Ondansetron HCl to each solvent, vials were subjected to stirring at room temperature at 400 RPM.
For the secondary solvent solubility screen, solvents which required heating as primary systems were blended at a 1:1 ratio with other solubilizers being screened.

- Solubility (visual) (in Citrate buffer USP (pH 3.0), without heating): at least 1 % w/w
- Solubility achieved (visual) (in DMSO): ≥ 10%
- Solubility (visual) (in DMSO, without heating): at least 1 % w/w
- Solubility (visual) (in PEG 400, without heating): at least 1 % w/w
- Solubility (visual) (in absolute alcohol, without heating): at least 1 % w/w
- Solubility achieved (visual) (in benzyl alcohol): ≥ 10%
- Solubility (visual) (in benzyl alcohol, without heating): at least 1 % w/w
- Solubility (visual) (in diethylene glycol monoethyl ether, without heating): at least 1 % w/w
- Solubility achieved (visual) (in propylene glycol): ≥ 10%
- Solubility (visual) (in propylene glycol, without heating): at least 1 % w/w
SMILES: Cc1nccn1CC1CCc2c(c3ccccc3n2C)C1=O (stereo not shown) [Ondansetron HCl]
